In patent US9302999B2, “Substituted triazoles as herbicides” (E. I. DU PONT DE NEMOURS AND COMPANY, priority 2012, dated 2016):

How the values were obtained:
Format in all cases: in vivo
[1] = system: chamomile (scentless chamomile, Matricaria inodora); assay: Test D pre-/postemergence: chamomile; settings: Postemergence
Text: (§1) Seeds of plant species selected from bluegrass (annual bluegrass, Poa annua), blackgrass (Alopecurus myosuroides), canarygrass (Phalaris minor), chickweed (common chickweed, Stellaria media), galium (catchweed bedstraw, Galium aparine), bromegrass, downy (downy bromegrass, Bromus tectorum), field poppy (Papaver rhoeas), field violet (Viola arvensis), foxtail, green (green foxtail, Setaria viridis), deadnettle (henbit deadnettle, Lamium amplexicaule), ryegrass, Italian (Italian ryegrass, Lolium multiflorum), kochia (Kochia scoparia), lambsquarters (Chenopodium album), oilseed rape (Brassica napus), pigweed (Amaranthus retroflexus), Russian thistle (Salsola iberica), chamomile (scentless chamomile, Matricaria inodora), speedwell (bird's-eye speedwell, Veronica persica), barley, spring (spring barley, Hordeum vulgare), wheat, spring (spring wheat, Triticum aestivum), buckwheat, wild (wild buckwheat, Polygonum convolvulus), mustard, wild (wild mustard, Sinapis arvensis), oat, wild (wild oat, Avena fatua), radish, wild (wild radish, Raphanus raphanistrum), windgrass (Apera spica-venti), barley, winter (winter barley, Hordeum vulgare), and wheat, winter (winter wheat, Triticum aestivum) were planted into a silt loam soil and treated preemergence with test chemicals formulated in a non-phytotoxic solvent mixture which included a surfactant. At the same time, these same crop and weed species were planted in pots containing the planting medium comprising spaghnum peat moss, vermiculite, wetting agent and starter nutrients and treated with postemergence applications of the test chemicals formulated in the same manner. Plants ranged in height from 2 to 18 cm (1- to 4-leaf stage).
(§2) Treated plants and controls were maintained in a controlled growth environment for 14 to 21 days after which time all species were compared to controls and visually evaluated. Plant response ratings, summarized in Table D, are based on a scale of 0 to 100 where 0 is no effect and 100 is complete control. A dash (-) response means no test result.

[2] = system: wheat, spring (spring wheat, Triticum aestivum); assay: Test D pre-/postemergence: wheat, spring
Text: as §1, §2

[3] = system: canarygrass (Phalaris minor); assay: Test D pre-/postemergence: canarygrass
Text: as §1, §2

[4] = system: field poppy (Papaver rhoeas); assay: Test D pre-/postemergence: field poppy; settings: Postemergence
Text: as §1, §2

[5] = system: bromegrass, downy (downy bromegrass, Bromus tectorum); assay: Test D pre-/postemergence: bromegrass, downy
Text: as §1, §2

[6] = 31 g ai/ha, scale 0 to 100 (0 no effect, 100 complete control)
[7] = 62 g ai/ha, scale 0 to 100 (0 no effect, 100 complete control)
[8] = 125 g ai/ha, scale 0 to 100, 0 no effect, 100 complete control
[9] = 250 g ai/ha, scale 0 to 100 (0 no effect, 100 complete control)
[10] = Postemergence, 31 g ai/ha, scale 0 to 100 (0 no effect, 100 complete control)
[11] = Postemergence, 62 g ai/ha, scale 0 to 100 (0 no effect, 100 complete control)
[12] = Postemergence, 125 g ai/ha, scale 0 to 100, 0 no effect, 100 complete control
[13] = Postemergence, 250 g ai/ha, scale 0 to 100 (0 no effect, 100 complete control)
[14] = Preemergence, 31 g ai/ha, scale 0 to 100, 0 no effect, 100 complete control
[15] = Preemergence, 62 g ai/ha, scale 0 to 100
[16] = Preemergence, 125 g ai/ha, scale 0 to 100
[17] = Preemergence, 250 g ai/ha, scale 0 to 100
[18] = Postemergence, 16 g ai/ha, scale 0 to 100

Compound	Plant response rating: Chamomile [1, 6]	Plant response rating: Chamomile [1, 7]	Plant response rating: Chamomile [1, 8]	Plant response rating: Chamomile [1, 9]	Plant response rating: Wheat, Spring [2, 10]	Plant response rating: Wheat, Spring [2, 11]	Plant response rating: Wheat, Spring [2, 12]	Plant response rating: Wheat, Spring [2, 13]	Plant response rating, Wheat, Spring [2, 14]	Plant response rating, Wheat, Spring [2, 15]	Plant response rating, Wheat, Spring [2, 16]	Plant response rating, Wheat, Spring [2, 17]	Plant response rating: Canarygrass [3, 10]	Plant response rating: Canarygrass [3, 11]	Plant response rating: Canarygrass [3, 12]	Plant response rating: Canarygrass [3, 13]	Plant response rating, Canarygrass [3, 14]	Plant response rating, Canarygrass [3, 15]	Plant response rating, Canarygrass [3, 16]	Plant response rating, Canarygrass [3, 17]	other results
FC(F)(F)COc1nn(-c2ccc(C(F)(F)F)cc2)nc1Cc1ccnc(C(F)(F)F)c1 [Compound 14, 4-[[5-(2,2,2-trifluoroethoxy)-2-[4-(trifluoromethyl)phenyl]-2H-1,2,3-triazol-4-yl]methyl]-2-(trifluoromethyl)pyridine]	20	60	100	100	15	20	35	40	0	0	5	15	25	40	55	80	10	25	90	98	Plant response rating: Field Poppy [4, 6]: 100; Plant response rating: Field Poppy [4, 7]: 100; Plant response rating: Field Poppy [4, 8]: 100; Plant response rating: Field Poppy [4, 9]: 100; Plant response rating: Bromegrass, Downy [5, 10]: 15; Plant response rating: Bromegrass, Downy [5, 11]: 20; Plant response rating: Bromegrass, Downy [5, 12]: 30; Plant response rating: Bromegrass, Downy [5, 13]: 40; Plant response rating, Bromegrass, Downy [5, 14]: 0; Plant response rating, Bromegrass, Downy [5, 15]: 10; Plant response rating, Bromegrass, Downy [5, 16]: 20; Plant response rating, Bromegrass, Downy [5, 17]: 30
COc1nn(-c2ccc(C(F)(F)F)cc2)nc1Cc1ccnc(C(F)(F)F)c1 [Compound 15, 4-[[5-methoxy-2-[4-(trifluoromethyl)phenyl]-2H-1,2,3-triazol-4-yl]methyl]-2-(trifluoromethyl)pyridine]	0	0	25	100	25	30	40	50	0	0	0	5	35	40	50	80	25	80	90	100	Plant response rating, Chamomile ([1]; 16 g ai/ha, scale 0 to 100): 0; Plant response rating, Wheat, Spring [2, 18]: 20; Plant response rating, Canarygrass [3, 18]: 25; Plant response rating: Field Poppy [4, 6]: 100; Plant response rating: Field Poppy [4, 7]: 100; Plant response rating: Field Poppy [4, 8]: 100; Plant response rating: Field Poppy [4, 9]: 100; Plant response rating, Field Poppy ([4]; 16 g ai/ha, scale 0 to 100): 100; Plant response rating: Bromegrass, Downy [5, 10]: 10; Plant response rating: Bromegrass, Downy [5, 11]: 10; Plant response rating: Bromegrass, Downy [5, 12]: 20; Plant response rating: Bromegrass, Downy [5, 13]: 40; Plant response rating, Bromegrass, Downy [5, 18]: 5; Plant response rating, Bromegrass, Downy [5, 14]: 0; Plant response rating, Bromegrass, Downy [5, 15]: 0; Plant response rating, Bromegrass, Downy [5, 16]: 0; Plant response rating, Bromegrass, Downy [5, 17]: 40
